According to patent US10875829B1, “Azetidine derivatives useful as modulators of cortical catecholaminergic neurotransmission” (Integrative Research Laboratories Sweden AB, priority 2016, dated 2020):
Counter-ions that a name gives are not always drawn. Marks after values point to notes of the source that are not given here.

Experiments:
DOPAC = experiment: In vivo neurochemistry: tissue levels of DOPAC in brain regions; parameters: species or system rats; conditions: 100 μmol/kg s.c., 65 min before sacrifice, control saline, n=5
Text: The change in turnover of dopamine in the terminal areas of the ascending dopaminergic projections of the mammalian brain can be illustrated by measuring of changes in biochemical indices in the brain e.g. changes in concentrations of dopamine metabolites such as 3,4-dihydroxyphenyl-acetic acid (DOPAC) in the striatum and frontal cortex.
The measurement of the tissue content of DOPAC is well established in the field of research since the 1960's. In short, male Sprague-Dawley rats are administered the test compound 60 minutes prior to decapitation. The brain is rapidly taken out and dissected. The striatum is rapidly frozen and subsequently quantitatively analyzed with respect to its content of DOPAC by means of HPLC and electrochemical detection. The number of animals used for each test compound/vehicle is 5/group.
After the behavioural activity sessions, the rats were decapitated and their brains rapidly taken out and put on an ice-cold petri-dish. The brains were dissected into a right and a left part of which the right part was analyzed for neurochemicals with HPLC and the left part was analyzed for gene expression. The limbic forebrain, the striatum, the frontal cortex, the hippocampus and the remaining hemispheral parts of each rat were dissected and frozen. Each brain part was subsequently analyzed with respect to its content of monoamines and their metabolites.
The monoamine transmitter substances (NA (noradrenaline), DA (dopamine), 5-HT (serotonin)) as well as one corresponding acid, (DOPAC (3,4-dihydroxyphenylacetic acid), were quantified in brain tissue homogenates by HPLC separations and electrochemical detection.
The analytical method is based on two chromatographic separations dedicated for amines or acids. Two chromatographic systems share a common auto injector with a 10-port valve and two sample loops for simultaneous injection on the two systems. Both systems are equipped with a reverse phase column (Luna C18 (2), dp 3 μm, 50*2 mm i.d., Phenomenex) and electrochemical detection is accomplished at two potentials on glassy carbon electrodes (MF-1000, Bioanalytical Systems, Inc.). The column effluent is passed via a T-connection to the detection cell or to a waste outlet. This is accomplished by two solenoid valves, which block either the waste or detector outlet. By preventing the chromatographic front from reaching the detector, better detection conditions are achieved. The aqueous mobile phase (0.4 ml/min) for the acid system contains citric acid 14 mM, sodium citrate 10 mM, Methanol 15% (v/v) and EDTA 0.1 mM. Detection potentials relative to Ag/AgCl reference are 0.45 and 0.60V. […] Detection potentials relative to Ag/AgCl reference are 0.45 and 0.65V.
Each compound or saline solution (control) indicated in the above table was administered subcutaneously (s.c.) 65 min before sacrificing the animals. DOPAC results are presented as percent of control means±SEM (standard error of the mean). Statistical significance was assessed using Student's t-test (2 tailed) vs controls. * denotes p<0.05, ** p<0.01, *** p<0.001, n=5.

[1] = target: Human 5-HT Transporter (SERT (h)) (Homo sapiens (Human), UniProt P31645); experiment: Radioligand binding assay, human 5-HT transporter ([3H]imipramine); conditions: for inhibition at 10 µM: 1 h, single concentration 1.0 E-5 M, duplicate, mean values; for IC50: dose-response curves
Human 5-HT Transporter (SERT (h)), sequence (P31645 whole entry): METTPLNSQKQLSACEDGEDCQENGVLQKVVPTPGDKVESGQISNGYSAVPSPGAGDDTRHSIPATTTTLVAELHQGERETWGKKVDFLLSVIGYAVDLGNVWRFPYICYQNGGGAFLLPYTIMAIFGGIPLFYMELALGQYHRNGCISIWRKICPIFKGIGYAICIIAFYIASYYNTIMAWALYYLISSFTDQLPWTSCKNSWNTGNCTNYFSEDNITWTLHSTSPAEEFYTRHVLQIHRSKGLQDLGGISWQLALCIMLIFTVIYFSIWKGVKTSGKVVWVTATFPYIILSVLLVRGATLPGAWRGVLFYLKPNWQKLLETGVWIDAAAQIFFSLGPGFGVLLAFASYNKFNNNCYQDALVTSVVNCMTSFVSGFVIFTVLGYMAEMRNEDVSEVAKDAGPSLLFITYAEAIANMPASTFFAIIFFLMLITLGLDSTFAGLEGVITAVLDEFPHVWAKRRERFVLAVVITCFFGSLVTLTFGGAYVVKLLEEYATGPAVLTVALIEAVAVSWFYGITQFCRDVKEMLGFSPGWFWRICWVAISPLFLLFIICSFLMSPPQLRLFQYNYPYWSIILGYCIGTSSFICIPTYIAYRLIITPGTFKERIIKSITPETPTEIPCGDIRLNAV
Experimental: (The measurement was performed as described in Tatsumi, M., Jansen, K., Blakely, R. D. and Richelson, E. (1999), Pharmacological profile of neuroleptics at human monoamine transporters, Eur. J. Pharmacol.
Cell membrane homogenates (12 μg protein) are incubated for 60 min at 22° C. with 2 nM [3H]imipramine in the absence or presence of the test compound in a buffer containing 50 mM Tris-HCl (pH 7.4), 120 mM NaCl, 5 mM KCl and 0.1% BSA.
Nonspecific binding is determined in the presence of 10 μM imipramine.
Following incubation, the samples are filtered rapidly under vacuum through glass fiber filters (GF/B, Packard) presoaked with 0.3% PEI and rinsed several times with an ice-cold buffer containing 50 mM Tris-HCl and 150 mM NaCl using a 96-sample cell harvester (Unifilter, Packard). The filters are dried then counted for radioactivity in a scintillation counter (Topcount, Packard) using a scintillation cocktail (Microscint 0, Packard).
The results are expressed as a percent inhibition of the control radioligand specific binding
(§1) […] Reported values are mean values.

[2] = target: Human Norepinephrine Transporter (NET (h)) (Homo sapiens (Human), UniProt P23975); experiment: Radioligand binding assay, human norepinephrine transporter ([3H]nisoxetine); conditions: for inhibition at 10 µM: 2 h, single concentration 1.0 E-5 M, duplicate, mean values; for IC50: dose-response curves
Human Norepinephrine Transporter (NET (h)), sequence (P23975 whole entry): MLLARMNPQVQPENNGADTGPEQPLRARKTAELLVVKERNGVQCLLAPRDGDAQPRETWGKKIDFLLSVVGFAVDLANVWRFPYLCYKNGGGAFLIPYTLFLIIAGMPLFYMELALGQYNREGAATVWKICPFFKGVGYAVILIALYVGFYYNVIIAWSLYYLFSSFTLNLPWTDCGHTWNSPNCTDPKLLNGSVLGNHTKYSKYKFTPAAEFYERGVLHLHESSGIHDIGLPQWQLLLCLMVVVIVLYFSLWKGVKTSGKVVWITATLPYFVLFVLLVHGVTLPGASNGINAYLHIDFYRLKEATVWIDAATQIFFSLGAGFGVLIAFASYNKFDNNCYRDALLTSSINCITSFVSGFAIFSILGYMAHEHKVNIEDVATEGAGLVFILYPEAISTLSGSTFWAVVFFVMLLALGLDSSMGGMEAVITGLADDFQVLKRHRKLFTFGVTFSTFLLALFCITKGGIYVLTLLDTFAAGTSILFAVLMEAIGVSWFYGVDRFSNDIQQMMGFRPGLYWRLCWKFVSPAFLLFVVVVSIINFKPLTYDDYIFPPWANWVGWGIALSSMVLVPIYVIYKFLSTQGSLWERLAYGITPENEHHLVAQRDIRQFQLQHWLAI
Experimental: (The measurement was performed as described in Pacholczyk, T., Blakely, R. D. and Amara, S. G. (1991), Expression cloning of a cocaine- and antidepressant-sensitive human noradrenaline transporter, Nature, 350: 350)
(§2) Cell membrane homogenates (20 μg protein) are incubated for 120 min at 4° C. with 1 nM [3H]nisoxetine in the absence or presence of the test compound in a buffer containing 50 mM Tris-HCl (pH 7.4), 120 mM NaCl and 5 mM KCl. Nonspecific binding is determined in the presence of 1 μM desipramine. Following incubation, the samples are filtered rapidly under vacuum through glass fiber filters (GF/B, Packard) presoaked with 0.3% PEI and rinsed several times with ice-cold 50 mM Tris-HCl using a 96-sample cell harvester (Unifilter, Packard). The filters are dried then counted for radioactivity in a scintillation counter (Topcount, Packard) using a scintillation cocktail (Microscint 0, Packard).
(§3) The results are expressed as a percent inhibition of the control radioligand specific binding.
as §1

[3] = target: Human Dopamine Transporter (DAT (h)) (Homo sapiens (Human), UniProt Q01959); experiment: Radioligand binding assay, human dopamine transporter ([3H]BTCP); conditions: for inhibition at 10 µM: 2 h, single concentration 1.0 E-5 M, duplicate, mean values; for IC50: dose-response curves
Human Dopamine Transporter (DAT (h)), sequence (Q01959 whole entry): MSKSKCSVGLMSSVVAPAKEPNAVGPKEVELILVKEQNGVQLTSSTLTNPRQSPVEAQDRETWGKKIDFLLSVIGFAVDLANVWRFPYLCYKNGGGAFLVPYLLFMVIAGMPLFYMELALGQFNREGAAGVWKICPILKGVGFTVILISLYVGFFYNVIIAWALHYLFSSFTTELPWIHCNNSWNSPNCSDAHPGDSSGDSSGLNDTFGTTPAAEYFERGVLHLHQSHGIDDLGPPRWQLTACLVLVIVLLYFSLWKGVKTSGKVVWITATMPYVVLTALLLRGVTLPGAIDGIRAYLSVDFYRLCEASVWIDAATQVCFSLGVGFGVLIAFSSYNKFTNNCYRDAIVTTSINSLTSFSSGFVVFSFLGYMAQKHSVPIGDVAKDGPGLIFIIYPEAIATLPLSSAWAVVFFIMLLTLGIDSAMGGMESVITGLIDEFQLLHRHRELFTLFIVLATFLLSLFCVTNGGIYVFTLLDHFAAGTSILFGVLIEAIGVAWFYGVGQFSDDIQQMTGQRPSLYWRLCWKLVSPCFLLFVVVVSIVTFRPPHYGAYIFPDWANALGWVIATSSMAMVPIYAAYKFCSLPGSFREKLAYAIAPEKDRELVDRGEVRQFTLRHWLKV
Experimental: (The measurement was performed as described in Pristuba, Z. B., Wilson, J. M., Hoffman, B. J., Kish, S. J. and Nisnik, H. B. (1994), Pharmacological heterogeneity of the cloned and native human dopamine transporter: disassociation of [3H]WIN 35,428 and [3H]GBR 12,935 binding, Mol. Pharmacol., 45: 125)
Cell membrane homogenates (20 μg protein) are incubated for 120 min at 4° C. with 4 nM
as §2, with “[3H]BTCP” for “Cell membrane homogenates (20 μg protein) are incubated for 120 min at 4° C. with 1 nM [3H]nisoxetine”, “7.4) and 100” for “7.4), 120”, “NaCl.” for “NaCl and 5 mM KCl.”, “10” for “1”, “BTCP.” for “desipramine.”
as §3, §1

[4] = ratio of IC50 values of Table 6

inhibition at 10 µM [1]	IC50 [1]	inhibition at 10 µM [2]	IC50 [2]	inhibition at 10 µM [3]	IC50 [3]	fold more potent than Example 1A at SERT [1, 4]	fold more potent than Example 1A at NET [2, 4]	fold more potent than Example 1A at DAT [3, 4]	Compound	DOPAC cortex ± SEM (DOPAC)	DOPAC striatum ± SEM (DOPAC)
59%	34 µM	37%	79 µM	49%	21 µM	–	–	–	Fc1cccc(OC2CNC2)c1F [Example 1A, 3-(2,3-difluorophenoxy)azetidine hydrochloric acid salt]	300 ± 26*** % of control means	53 ± 2*** % of control means
12%	–	25%	–	12%	–	–	–	–	Fc1cc(F)c(F)c(OC2CNC2)c1 [Example 2, 3-(2,3,5-trifluorophenoxy)azetidine hydrochloric acid salt]	121 ± 5.6 % of control means	96 ± 4 % of control means
11%	–	25%	–	10%	–	–	–	–	Fc1cc(F)c(F)c(OC2CNC2)c1F [Example 3, 3-(2,3,5,6-tetrafluorophenoxy)-azetidine hydrochloric acid salt]	201 ± 11*** % of control means	158 ± 3.4*** % of control means
6%	–	10%	–	25%	–	–	–	–	Fc1ccc(F)c(OC2CNC2)c1F [Example 20, 3-(2,3,6-trifluorophenoxy)azetidine hydrochloric acid salt]	–	–
1.5%	–	11%	–	17%	–	–	–	–	CCN1CC(Oc2c(F)c(F)cc(F)c2F)C1 [Example 39, 1-ethyl-3-(2,3,5,6-tetrafluorophenoxy)azetidine hydrochloric acid salt]	191 ± 18** % of control means	247 ± 13*** % of control means
–	–	–	–	–	–	–	–	–	Fc1cc(F)cc(OC2CNC2)c1.O=C(O)C(O)C(O)C(=O)O [Example 52B, 3-(3,5-difluorophenoxy)azetidine (+)-tartaric acid salt]	229 ± 4.6*** % of control means	72 ± 1.7*** % of control means
29%	–	25%	–	25%	–	–	–	–	Fc1cc(F)cc(OC2CNC2)c1 [Example 52C, 3-(3,5-difluorophenoxy)azetidine hydrochloric acid salt]	–	–
92%	1.3 µM	84%	2.2 µM	79%	3.5 µM	26 fold	36 fold	6 fold	Clc1ccc(OC2CNC2)cc1Cl [Reference Compound, 3-(3,4-dichlorophenoxy)azetidine hydrochloric acid salt, reference compound]	86 ± 5.6 % of control means	89 ± 2.5 % of control means
